# Results published in ChEMBL document CHEMBL5120827, “Metabolomics and Genomics Approach for the Discovery of Serrawettin W2 Lipopeptides from Serratia marcescens NP2” (J Nat Prod, 2022).
# System: Enterococcus faecium
# Experiment: Antibacterial activity against clinical isolate Enterococcus faecium assessed as reduction in microbial growth by broth microdilution
# Format: functional, organism-based
MIC [mg/L],SMILES,IC50 [mg/L]
> 125,CCCCCC1CC(=O)N[C@H](CC(C)C)C(=O)N[C@@H](CO)C(=O)N[C@@H]([C@@H](C)O)C(=O)N[C@@H](Cc2ccccc2)C(=O)N[C@@H](C(C)C)C(=O)O1 (stereo not given in full),
62.5,CCCCCC1CC(=O)N[C@H](CC(C)C)C(=O)N[C@@H](CO)C(=O)N[C@@H]([C@@H](C)O)C(=O)N[C@@H](Cc2ccccc2)C(=O)N[C@@H]([C@@H](C)CC)C(=O)O1 (stereo not given in full),53.1
> 125,CCCCCCCCCC1CC(=O)N[C@H](CC(C)C)C(=O)N[C@@H](CO)C(=O)N[C@@H]([C@@H](C)O)C(=O)N[C@@H](Cc2ccccc2)C(=O)N[C@@H]([C@@H](C)CC)C(=O)O1 (stereo not given in full),

# Further lines, the compound ahead of its results:
SMILES,MIC [mg/L],IC50 [mg/L]
CCCCCCCCCC1CC(=O)N[C@@H](CC(C)C)C(=O)N[C@@H](CO)C(=O)N[C@@H]([C@@H](C)O)C(=O)N[C@@H](Cc2ccccc2)C(=O)N[C@@H](C(C)C)C(=O)O1 (stereo not given in full),> 125,
CCCCCC1CC(=O)N[C@H](CC(C)C)C(=O)N[C@@H](CO)C(=O)N[C@@H]([C@@H](C)O)C(=O)N[C@@H](Cc2ccccc2)C(=O)N[C@@H](CC(C)C)C(=O)O1 (stereo not given in full),> 125,
CCCCCCCC1CC(=O)N[C@H](CC(C)C)C(=O)N[C@@H](CO)C(=O)N[C@@H]([C@@H](C)O)C(=O)N[C@@H](Cc2ccccc2)C(=O)N[C@@H](CC(C)C)C(=O)O1 (stereo not given in full),15.6,8.4
CCCCCCCC1CC(=O)N[C@@H](CC(C)C)C(=O)N[C@@H](CO)C(=O)N[C@@H]([C@@H](C)O)C(=O)N[C@@H](Cc2ccccc2)C(=O)N[C@@H](C(C)C)C(=O)O1 (stereo not given in full),> 125,
CCCCCCCCCC1CC(=O)N[C@H](CC(C)C)C(=O)N[C@@H](CO)C(=O)N[C@@H]([C@@H](C)O)C(=O)N[C@@H](Cc2ccccc2)C(=O)N[C@@H](CC(C)C)C(=O)O1 (stereo not given in full),> 125,
